Measured values published in patent US7482355B2, “Pyrimidine derivatives as modulators of chemokine receptor activity” (AstraZeneca AB, priority 2002, dated 2009).

Biological target: T1, hrCXCR2 (Homo sapiens, UniProt P25025)
T1 construct: expressed in transfected cells; host or cells: HEK 293 cells (ECACC No. 85120602), membranes of the highest expressing clone
T1 sequence (P25025 1-360): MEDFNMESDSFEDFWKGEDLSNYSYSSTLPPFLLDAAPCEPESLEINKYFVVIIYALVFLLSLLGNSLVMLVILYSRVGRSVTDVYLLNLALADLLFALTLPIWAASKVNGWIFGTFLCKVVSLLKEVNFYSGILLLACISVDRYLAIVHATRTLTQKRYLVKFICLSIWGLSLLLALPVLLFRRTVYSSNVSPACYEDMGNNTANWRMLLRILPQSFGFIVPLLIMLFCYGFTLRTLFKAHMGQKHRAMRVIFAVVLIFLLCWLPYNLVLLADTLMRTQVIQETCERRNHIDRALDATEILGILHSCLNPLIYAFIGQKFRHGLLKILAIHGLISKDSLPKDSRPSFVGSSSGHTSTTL
Experiment: Ligand binding assay, [125I]IL-8 displacement from membranes of HEK 293 cells expressing hrCXCR2
Conditions: [125I]IL-8 (~50 pM), HEK 293 hrCXCR2 membranes, 1.5 hours at room temperature
Excerpt: [^125I]IL-8 (human, recombinant) was purchased from Amersham, U.K. with a specific activity of 2,000 Ci/mmol. All other chemicals were of analytical grade. High levels of hrCXCR2 were expressed in HEK 293 cells (human embryo kidney 293 cells ECACC No. 85120602) (Lee et al. (1992) J. Biol. Chem. 267 pp16283-16291). hrCXCR2 cDNA was amplified and cloned from human neutrophil mRNA. The DNA was cloned into PCRScript (Stratagene) and clones were identified using DNA. The coding sequence was sub-cloned into the eukauyotic expression vector RcCMV (Invitrogen). Plasmid DNA was prepared using Quiagen Megaprep 2500 and transfected into HEK 293 cells using Lipofectamine reagent (Gibco BRL). Cells of the highest expressing clone were harvested in phosphate-buffered saline containing 0.2% (w/v) ethylenediaminetetraacetic acid (EDTA) and centrifuged (200 g, 5 min.). The cell pellet was resuspended in ice cold homogenisation buffer [10 mM HEPES (pH 7.4), 1 mM dithiothreitol, 1 mM EDTA and a panel of protease inhibitors (1 mM phenyl methyl sulphonyl fluoride, 2 μg/ml soybean trypsin inhibitor, 3 mM benzamidine, 0.5 μg/ml leupeptin and 100 μg/ml bacitracin)] and the cells left to swell for 10 minutes. The cell preparation was disrupted using a hand held glass mortar/PTFE pestle homogeniser and cell membranes harvested by centrifugation (45 minutes, 100,000 g, 4° C.). The membrane preparation was stored at −70° C. in homogenisation buffer supplemented with Tyrode's salt solution (137 mM NaCl, 2.7 mM KCl, 0.4 mM NaH2PO4), 0.1% (w/v) gelatin and 10% (v/v) glycerol.
All assays were performed in a 96-well MultiScreen 0.45 μm filtration plates (Millipore, U.K.). Each assay contained ˜50 pM [^125I]IL-8 and membranes (equivalent to ˜200,000 cells) in assay buffer [Tyrode's salt solution supplemented with 10 mM HEPES (pH 7.4), 1.8 mM CaCl2, 1 mM MgCl2, 0.125 mg/ml bacitracin and 0.1% (w/v) gelatin]. […] The backing plate was removed from the MultiScreen plate assembly, the filters dried at room temperature, punched out and then counted on a Cobra γ-counter.

Row | IC50 [nM] | SMILES
1 | 794 | C[C@H](CO)Nc1cc(O)nc(SCc2cccc(Cl)c2)n1 [Example 3, 2-[(3-Chlorobenzyl)thio]-6-{[(1R)-2-hydroxy-1-methylethyl]amino}-4-pyrimidinol]
2 | 100 | C[C@H](CO)Nc1nc(SCc2cccc(F)c2F)nc(O)c1SCc1ncon1 [Example 26, 2-[[(2,3-Difluorophenyl)methyl]thio]-6-[[(1R)-2-hydroxy-1-methylethyl]amino]-5-[(1,2,4-oxadiazol-3-ylmethyl)thio]-4-pyrimidinol]
3 | 31.6 | C[C@H](CO)Nc1nc(SCc2cccc(F)c2)nc(O)c1F [Example 33, 2-[(3-fluorobenzyl)thio]-5-fluoro-6-{[(1R)-2-hydroxy-1-methylethyl]amino}pyrimidin-4-ol]
